Results: patent US20260042764A1, “COMPOSITIONS AND METHODS FOR INHIBITION OF KRAS” (TheRas, Inc., priority 2022, published 2026)
pIC50: −log10 of the molar value.

Columns and labels:
[1] = tested on: Capan-2 cells (KRAS G12V); assay: Cell-based pERK HTRF assay in Capan-2 cells (Biological Example 5)
Description: (§1) Biological Example 5: Cell-based PERK HTRF assay in AsPC-1, SW1900, HPAC, Capan-2, RKN, H358, HCT116, KP-2, H1573, A549, MKN1, and HT1080 cells
(§2) The inhibition of ERK phosphorylation, as measured using the HTRF Advanced Phospho-ERK 1/2 (Thr202/Tyr204) Detection Assay kit (Perkin Elmer), was used to determine the effectiveness of test compounds in disrupting KRAS-driven protein/effector signaling in cells.
(§3) On day 1, cells were seeded into 96-well plates at 2.5×10^4 cells/well in 100 μL of complete growth media supplemented with 10% fetal bovine serum (FBS) and incubated at 37° C., in the presence of 5% CO2.
(§4) On day 2, cells were treated with compounds diluted in DMSO at 0.25% final DMSO concentration. Compounds were dosed in a 9-point concentration curve with three-fold dilution between concentrations. Cells were incubated in the presence of compound for two hours at 37° C. Following this treatment period, cells were harvested by aspirating the media, adding 40 μL of kit-supplied 1x lysis buffer per well, and shaking for 30 minutes at 250 rpm at room temperature.
(§5) Following cell lysis, samples were homogenized by pipetting up and down twenty times and 16 μL of cell lysate per well was transferred from the 96-well cell culture plate to two wells of a 384-well detection plate. A complete detection buffer was prepared by diluting D2 and Eu Cryptate antibodies 1:20 in kit-provided detection solution, 4 μL of complete detection buffer was then added to each well with lysate. Plates were incubated with gentle rocking for 24 hours at 4° C.
(§6) Following this incubation period, plates were centrifuged at 500×g for one minute and analyzed on a CLARIOstar plate reader. Data was imported into Microsoft Excel and the signal from the 665 nm channel was divided by the signal from the 620 nm channel. % pERK was calculated as: […]
(§7) Data was imported to the Prism software package (Graphpad) and EC50 values were calculated using the log (inhibitor) vs, response—variable slopc (Four parameters) model.

[2] = tested on: RKN cells (KRAS G12V); assay: Cell-based pERK HTRF assay in RKN cells (Biological Example 5)
Description: as §1, §2, §3, §4, §5, §6, §7

[3] = tested on: MKN1 cells (KRAS amplification); assay: Cell-based pERK HTRF assay in MKN1 cells (Biological Example 5)
Description: as §1, §2, §3, §4, §5, §6, §7

[4] = tested on: Capan-2 cells (KRAS G12V); assay: 3D Cell viability assay in Capan-2 cells (Biological Example 6); type: cell-based; conditions: Capan-2 (KRAS G12V) spheroids, 72 hours
Description: (§8) Biological Example 6: 3D Cell viability assay in AsPC-1, SW1900, HPAC, Capan-2, RKN, H358, HCT116, KP-2, H1573, A549, MKN1, and HT1080 cells
(§9) The inhibition of cellular viability as a result of test compound treatment in a spheroid assay was measured using the CellTiter-Glow 3D Cell Viability Assay (Promega).
(§10) On Day 1, 1000 cells per well were seeded in 150 μL of complete growth media supplemented with 10% fetal bovine serum (FBS) and incubated at 37° C., in the presence of 5% CO2 in 96-well ultra-low attachment microplates (Corning) for 48 hours undisturbed to allow spheroids to form.
(§11) Following spheroid formation, cells were treated with compounds diluted in DMSO at 0.25% final DMSO concentration. Compounds were dosed in a 9-point concentration curve with three-fold dilution between concentrations. Cells were incubated in the presence of compound for 72 hours at 37° C., in the presence of 5% CO2.
(§12) Following this incubation period, the kit-provided CTG reagent was allowed to equilibrate for 30 minutes at room temperature, 150 μL of equilibrated CTG reagent was added to each well, and the plate was sealed before shaking at 250 rpm for 10 minutes at room temperature to lyse the cells, 150 μL of lysate per well was transferred to a 96-well plate and luminescence was read on a CLARIOstar plate reader.
(§13) Data was imported into the Prism software package (Graphpad) and EC50 values were calculated using the log (inhibitor) vs, response—variable slope (Four parameters) model.

[5] = tested on: RKN cells (KRAS G12V); assay: 3D Cell viability assay in RKN cells (Biological Example 6); type: cell-based; conditions: RKN (KRAS G12V) spheroids, 72 hours
Description: as §8, §9, §10, §11, §12, §13

[6] = tested on: HCT116 cells (KRAS G13D); assay: 3D Cell viability assay in HCT116 cells (Biological Example 6); type: cell-based; conditions: Homo sapiens, HCT-116; HCT116 (KRAS G13D) spheroids, 72 hours
Description: as §8, §9, §10, §11, §12, §13

[7] = tested on: AsPC-1 cells (KRAS G12D); assay: 3D Cell viability assay in AsPC-1 cells (Biological Example 6); type: cell-based; conditions: AsPC-1 (KRAS G12D) spheroids, 72 hours
Description: as §8, §9, §10, §11, §12, §13

[8] = Homo sapiens, Capan-2, Capan-2 (KRAS G12V) cells
[9] = Homo sapiens, MKN-1, MKN cells (MKN1, KRAS amplification)

Compound | pIC50 [1, 8] | pIC50 [2] | pIC50 [3, 9] | pIC50 ([4]; Homo sapiens) | pIC50 [5] | pIC50 [6] | pIC50 ([7]; Homo sapiens, ASPC1) | pIC50 ([1]; Capan-2 (KRAS G12V) cells) | pIC50 ([3]; MKN cells (MKN1, KRAS amplification)) | pIC50 [7] | pIC50 [4]
CCC(=O)N1CC[C@@H](N(C)c2nc(OC[C@@]34CCCN3C[C@H](F)C4)nc3c(F)c(-c4ccc(F)c5sc(N)c(C#N)c45)c(C(F)(F)F)cc23)[C@H]1C [Compound 260] | ≥ 7.00 | ≥ 7.00 | ≥ 7.00 | ≥ 7.00 | ≥ 7.00 | 6.00 to 7.00 |  |  |  |  | 
CCN(c1nc(OC[C@@]23CCCN2C[C@H](F)C3)nc2c(F)c(-c3ccc(F)c4sc(N)c(C#N)c34)c(Cl)cc12)[C@@H]1CCN(C(=O)C2CC2)[C@@H]1C [Compound 337] | ≥ 7.00 |  | ≥ 7.00 | 6.00 to 7.00 |  | 6.00 to 7.00 |  |  |  |  | 
CC(=O)N1CC[C@@H](N(C)c2nc(OC[C@@]34CCCN3C[C@H](F)C4)nc3c(F)c(-c4ccc(F)c5sc(N)c(C#N)c45)c(Cl)cc23)[C@H]1C [Compound 398] | ≥ 7.00 |  | ≥ 7.00 | 6.00 to 7.00 |  | 6.00 to 7.00 |  |  |  |  | 
C/C=C/C(=O)N1CC[C@H](N(CC)c2nc(OC[C@@]34CCCN3C[C@H](F)C4)nc3c(F)c(-c4ccc(F)c5sc(N)c(C#N)c45)c(C(F)(F)F)cc23)C1 (atropisomer, axis not shown) [Compound 674] | ≥ 7.00 | ≥ 7.00 | ≥ 7.00 | ≥ 7.00 | ≥ 7.00 |  | ≥ 7.00 |  |  |  | 
CC(=O)N1CC[C@@H](N(C)c2nc(OC[C@@]34CCCN3C[C@H](F)C4)nc3c(F)c(-c4ccc(F)c5sc(N)c(C#N)c45)c(C(F)(F)F)cc23)[C@H]1C (single isomer, unassigned) [Compound 193] | ≥ 7.00 |  | ≥ 7.00 | ≥ 7.00 |  | ≥ 7.00 |  |  |  |  | 
CCN(c1nc(OC[C@@]23CCCN2C[C@H](F)C3)nc2c(F)c(-c3ccc(F)c4sc(N)c(C#N)c34)c(C(F)(F)F)cc12)[C@H]1CCN(C(=O)N2CC(F)C2)C1 (atropisomer, axis not shown) [Compound 606] | ≥ 7.00 | ≥ 7.00 | ≥ 7.00 | ≥ 7.00 | ≥ 7.00 |  | ≥ 7.00 |  |  |  | 
CCN(c1nc(OC[C@@]23CCCN2C[C@H](F)C3)nc2c(F)c(-c3ccc(F)c4sc(N)c(C#N)c34)c(Cl)cc12)[C@@H]1CCN(C(C)=O)[C@@H]1C [Compound 323] | ≥ 7.00 |  | ≥ 7.00 | ≥ 7.00 |  | 6.00 to 7.00 |  |  |  |  | 
N#Cc1c(N)sc2c(F)ccc(-c3c(C(F)(F)F)cc4c(N5CCCOCC5)nc(OC[C@@]56CCCN5C[C@H](F)C6)nc4c3F)c12 [Compound 232] | ≥ 7.00 |  |  |  |  | ≥ 7.00 |  |  |  |  | 
N#Cc1c(N)sc2c(F)ccc(-c3c(C(F)(F)F)cc4c(N5CCC[C@@H](O)C5)nc(OC[C@@]56CCCN5C[C@H](F)C6)nc4c3F)c12 [Compound 234] | ≥ 7.00 |  | ≥ 7.00 |  |  | 6.00 to 7.00 |  |  |  |  | 
CCN(c1nc(OC[C@@]23CCCN2C[C@H](F)C3)nc2c(F)c(-c3ccc(F)c4sc(N)c(C#N)c34)c(C(F)(F)F)cc12)[C@H]1C[C@@H](C)N(C(=O)C2COC2)C1 (atropisomer, axis not shown) [Compound 586] | ≥ 7.00 | ≥ 7.00 | ≥ 7.00 | ≥ 7.00 | ≥ 7.00 |  | ≥ 7.00 |  |  |  | 
CCN(c1nc(OC[C@@]23CCCN2C[C@H](F)C3)nc2c(F)c(-c3ccc(F)c4sc(N)c(C#N)c34)c(C(F)(F)F)cc12)[C@H]1C[C@H](C)N(C(=O)N2CC(OC)C2)C1 (atropisomer, axis not shown) [Compound 764] | ≥ 7.00 | ≥ 7.00 | ≥ 7.00 | ≥ 7.00 | ≥ 7.00 |  | ≥ 7.00 |  |  |  | 
N#Cc1c(N)sc2c(F)ccc(-c3c(C(F)(F)F)cc4c(N5CC6CC5CO6)nc(OC[C@@]56CCCN5C[C@H](F)C6)nc4c3F)c12 (some centres unmarked) [Compound 147] | ≥ 7.00 |  |  |  |  | 6.00 to 7.00 |  |  |  |  | 
N#Cc1c(N)sc2c(F)ccc(-c3c(C(F)(F)F)cc4c(N5CCOCC5)nc(OC[C@@]56CCCN5C[C@H](F)C6)nc4c3F)c12 (single isomer, unassigned) [Compound 198] | ≥ 7.00 |  | ≥ 7.00 | ≥ 7.00 |  | ≥ 7.00 |  |  |  |  | 
C[C@H]1Cn2nc(C(=O)N(C)C)cc2CN1c1nc(OC[C@@]23CCCN2C[C@H](F)C3)nc2c(F)c(-c3ccc(F)c4sc(N)c(C#N)c34)c(C(F)(F)F)cc12 (atropisomer, axis not shown) [Compound 610] | ≥ 7.00 | ≥ 7.00 | ≥ 7.00 | ≥ 7.00 | ≥ 7.00 |  | ≥ 7.00 |  |  |  | 
CCN(c1nc(OC[C@@]23CCCN2C[C@H](F)C3)nc2c(F)c(-c3ccc(F)c4sc(N)c(C#N)c34)c(C(F)(F)F)cc12)[C@H]1CCN(C(=O)C2CC2)[C@@H]1C (atropisomer, axis not shown) [Compound 579] | ≥ 7.00 | ≥ 7.00 | ≥ 7.00 | ≥ 7.00 | ≥ 7.00 |  | ≥ 7.00 |  |  |  | 
CCN(c1nc(OCC23CCCN2CC(F)C3)nc2c(F)c(-c3ccc(F)c4sc(N)c(C#N)c34)c(C(F)(F)F)cc12)C1CC(C)N(C(=O)N2CC(F)C2)C1 (centres unmarked) [Compound 759] |  | ≥ 7.00 |  |  | ≥ 7.00 |  |  | ≥ 7.00 | ≥ 7.00 | ≥ 7.00 | ≥ 7.00
CCN(c1nc(OC[C@@]23CCCN2C[C@H](F)C3)nc2c(F)c(-c3ccc(F)c4sc(N)c(C#N)c34)c(C(F)(F)F)cc12)[C@H]1C[C@H](C)N(C(C)=O)C1 [Compound 463] | ≥ 7.00 |  | ≥ 7.00 | ≥ 7.00 |  |  | ≥ 7.00 |  |  |  | 
CCN(c1nc(OC[C@@]23CCCN2C[C@H](F)C3)nc2c(F)c(-c3ccc(F)c4sc(N)c(C#N)c34)c(C(F)(F)F)cc12)[C@H]1C[C@H](C)N(C(=O)OC)C1 (atropisomer, axis not shown) [Compound 704] | ≥ 7.00 | ≥ 7.00 | ≥ 7.00 | ≥ 7.00 | ≥ 7.00 |  | ≥ 7.00 |  |  |  | 
C[C@@H]1[C@H](N(C)c2nc(OC[C@@]34CCCN3C[C@H](F)C4)nc3c(F)c(-c4ccc(F)c5sc(N)c(C#N)c45)c(C(F)(F)F)cc23)CCN1C(=O)C1CC1 [Compound 258] |  |  | ≥ 7.00 |  |  | 6.00 to 7.00 |  |  |  |  | 
CCN(c1nc(OC[C@@]23CCCN2C[C@H](F)C3)nc2c(F)c(-c3ccc(F)c4sc(N)c(C#N)c34)c(C(F)(F)F)cc12)[C@H]1CCN(C(=O)c2ncco2)C1 (atropisomer, axis not shown) [Compound 584] | ≥ 7.00 | ≥ 7.00 | ≥ 7.00 | ≥ 7.00 | ≥ 7.00 |  | ≥ 7.00 |  |  |  | 
CN(Cc1cccnc1N)c1nc(OC[C@@]23CCCN2C[C@H](F)C3)nc2c(F)c(-c3ccc(F)c4sc(N)c(C#N)c34)c(C(F)(F)F)cc12 [Compound 390] | ≥ 7.00 |  | ≥ 7.00 | ≥ 7.00 |  | 6.00 to 7.00 | ≥ 7.00 |  |  |  | 
